# Laboratory results from ChEMBL document CHEMBL1151339, “Antitumor agents from bohemic acid complex, III. The isolation of marcellomycin, musettamycin, rudolphomycin, mimimycin, collinemycin, alcindoromycin, and bohemamine” (J Nat Prod, 1980).
# How the values were obtained:
# Mus musculus [1] = assay: Toxicity in BDF1 mouse xenografted with mouse B16 cells assessed as survival at 0.1 mg/kg after 5 days; assay type: organism-based; set-up: dose 0.1 mg/kg
# Enterobacter cloacae = assay: Antibacterial activity against Enterobacter cloacae A-9659 by 2-fold tube dilution method; assay type: functional
# Streptococcus pneumoniae = assay: Antibacterial activity against Streptococcus pneumoniae A-9585 by 2-fold tube dilution method; assay type: functional
# B16 [2] = assay: Antitumor activity against mouse B16 cells xenografted in BDF1 mouse assessed as median survival time at 0.4 mg/kg; assay type: functional
# B16 [3] = assay: Antitumor activity against mouse B16 cells xenografted in BDF1 mouse assessed as change in tumor average weight at 0.8 mg/kg; assay type: functional
# L1210 [4] = assay: Antitumor activity against mouse L1210 cells xenografted in BDF1 mouse assessed as median survival time at 0.8 mg/kg, ip; assay type: functional; settings: route intraperitoneal
# Mus musculus [5] = assay: Toxicity in BDF1 mouse xenografted with mouse L1210 cells assessed as survival at 0.4 mg/kg, ip after 5 days; assay type: organism-based; set-up: dose 0.4 mg/kg, route intraperitoneal; settings: in vivo, 120 h
# B16 [6] = assay: Antitumor activity against mouse B16 cells xenografted in BDF1 mouse assessed as median survival time at 0.025 mg/kg; assay type: functional
# L1210 [7] = assay: Antitumor activity against mouse L1210 cells xenografted in BDF1 mouse assessed as change in tumor average weight at 0.8 mg/kg, ip; assay type: functional; settings: route intraperitoneal
# Escherichia coli [8] = assay: Antibacterial activity against Escherichia coli A15119 by 2-fold tube dilution method; assay type: functional
# B16 [9] = assay: Antitumor activity against mouse B16 cells xenografted in BDF1 mouse assessed as change in tumor average weight at 0.025 mg/kg; assay type: functional
# Mus musculus [10] = assay: Toxicity in BDF1 mouse xenografted with mouse L1210 cells assessed as survival at 0.8 mg/kg, ip after 5 days; assay type: organism-based; set-up: dose 0.8 mg/kg, route intraperitoneal; settings: in vivo, 120 h
# B16 [11] = assay: Antitumor activity against mouse B16 cells xenografted in BDF1 mouse assessed as median survival time at 0.05 mg/kg; assay type: functional
# B16 [12] = assay: Antitumor activity against mouse B16 cells xenografted in BDF1 mouse assessed as change in tumor average weight at 3.2 mg/kg; assay type: functional
# B16 [13] = assay: Antitumor activity against mouse B16 cells xenografted in BDF1 mouse at 0.2 mg/kg relative to control; assay type: functional
# B16 [14] = assay: Antitumor activity against mouse B16 cells xenografted in BDF1 mouse at 3.2 mg/kg relative to control; assay type: functional
# B16 [15] = assay: Antitumor activity against mouse B16 cells xenografted in BDF1 mouse at 0.4 mg/kg relative to control; assay type: functional
# B16 [16] = assay: Antitumor activity against mouse B16 cells xenografted in BDF1 mouse at 0.1 mg/kg relative to control; assay type: functional
# B16 [17] = assay: Antitumor activity against mouse B16 cells xenografted in BDF1 mouse assessed as median survival time at 0.1 mg/kg; assay type: functional
# Mus musculus [18] = assay: Toxicity in BDF1 mouse xenografted with mouse B16 cells assessed as survival at 1.6 mg/kg after 5 days; assay type: organism-based; set-up: dose 1.6 mg/kg
# Mus musculus [19] = assay: Toxicity in BDF1 mouse xenografted with mouse B16 cells assessed as survival at 0.8 mg/kg after 5 days; assay type: organism-based; set-up: dose 0.8 mg/kg
# Escherichia coli [20] = assay: Antibacterial activity against Escherichia coli A20341-1 by 2-fold tube dilution method; assay type: functional
# Mus musculus [21] = assay: Toxicity in BDF1 mouse xenografted with mouse L1210 cells assessed as survival at 6.4 mg/kg, ip after 5 days; assay type: organism-based; set-up: dose 6.4 mg/kg, route intraperitoneal; settings: in vivo, 120 h
# B16 [22] = assay: Antitumor activity against mouse B16 cells xenografted in BDF1 mouse assessed as change in tumor average weight at 0.2 mg/kg; assay type: functional
# B16 [23] = assay: Antitumor activity against mouse B16 cells xenografted in BDF1 mouse at 0.8 mg/kg relative to control; assay type: functional
# Proteus mirabilis = assay: Antibacterial activity against Proteus mirabilis A-9900 by 2-fold tube dilution method; assay type: functional
# B16 [24] = assay: Antitumor activity against mouse B16 cells xenografted in BDF1 mouse assessed as median survival time at 0.2 mg/kg; assay type: functional
# L1210 [25] = assay: Antitumor activity against mouse L1210 cells xenografted in BDF1 mouse at 0.4 mg/kg, ip relative to control; assay type: functional; settings: route intraperitoneal
# Microsporum canis = assay: Antifungal activity against Microsporum canis A-9872 by 2-fold tube dilution method; assay type: functional
# Pichia kudriavzevii = assay: Antifungal activity against Candida krusei A15052 by 2-fold tube dilution method; assay type: functional
# B16 [26] = assay: Antitumor activity against mouse B16 cells xenografted in BDF1 mouse at 1.6 mg/kg relative to control; assay type: functional
# B16 [27] = assay: Antitumor activity against mouse B16 cells xenografted in BDF1 mouse at 0.05 mg/kg relative to control; assay type: functional
# Candida albicans [28] = assay: Antifungal activity against Candida albicans A15050 by 2-fold tube dilution method; assay type: functional
# Mus musculus [29] = assay: Toxicity in BDF1 mouse xenografted with mouse B16 cells assessed as survival at 0.2 mg/kg after 5 days; assay type: organism-based; set-up: dose 0.2 mg/kg
# L1210 [30] = assay: Antitumor activity against mouse L1210 cells xenografted in BDF1 mouse at 0.8 mg/kg, ip relative to control; assay type: functional; settings: route intraperitoneal
# L1210 [31] = assay: Antitumor activity against mouse L1210 cells xenografted in BDF1 mouse assessed as median survival time at 0.4 mg/kg, ip; assay type: functional; settings: route intraperitoneal
# B16 [32] = assay: Antitumor activity against mouse B16 cells xenografted in BDF1 mouse assessed as median survival time at 3.2 mg/kg; assay type: functional
# B16 [33] = assay: Antitumor activity against mouse B16 cells xenografted in BDF1 mouse assessed as change in tumor average weight at 1.6 mg/kg; assay type: functional
# Klebsiella pneumoniae = assay: Antibacterial activity against Klebsiella pneumoniae A15130 by 2-fold tube dilution method; assay type: functional
# B16 [34] = assay: Antitumor activity against mouse B16 cells xenografted in BDF1 mouse assessed as median survival time at 0.8 mg/kg; assay type: functional
# Candida albicans [35] = assay: Antifungal activity against Candida albicans A-9540 by 2-fold tube dilution method; assay type: functional
# Streptococcus pyogenes = assay: Antibacterial activity against Streptococcus pyogenes A-9604 by 2-fold tube dilution method; assay type: functional
# Mus musculus [36] = assay: Toxicity in BDF1 mouse xenografted with mouse B16 cells assessed as survival at 0.4 mg/kg after 5 days; assay type: organism-based; set-up: dose 0.4 mg/kg
# Staphylococcus aureus = assay: Antibacterial activity against Staphylococcus aureus A-9497 by 2-fold tube dilution method; assay type: functional
# B16 [37] = assay: Antitumor activity against mouse B16 cells xenografted in BDF1 mouse assessed as median survival time at 1.6 mg/kg; assay type: functional
# B16 [38] = assay: Antitumor activity against mouse B16 cells xenografted in BDF1 mouse assessed as change in tumor average weight at 0.1 mg/kg; assay type: functional
# Serratia marcescens = assay: Antibacterial activity against Serratia marcescens A20019 by 2-fold tube dilution method; assay type: functional
# B16 [39] = assay: Antitumor activity against mouse B16 cells xenografted in BDF1 mouse assessed as change in tumor average weight at 0.4 mg/kg; assay type: functional
# Pseudomonas aeruginosa = assay: Antibacterial activity against Pseudomonas aeruginosa A-9843A by 2-fold tube dilution method; assay type: functional
# [40] = system: Trichophyton mentagrophytes; assay: Antifungal activity against Trichophyton mentagrophytes A-9870 by 2-fold tube dilution method; assay type: functional
# L1210 [41] = assay: Antitumor activity against mouse L1210 cells xenografted in BDF1 mouse assessed as change in tumor average weight at 3.2 mg/kg, ip; assay type: functional; settings: route intraperitoneal
# Staphylococcus = assay: Antibacterial activity against penicillin resistant Staphylococcus A-9606 by 2-fold tube dilution method; assay type: functional
structure (smiles),measurement,setting,value
CC[C@@]1(O)C[C@H](O[C@H]2C[C@H](N(C)C)[C@H](O[C@H]3C[C@H](O)[C@H](O[C@@H]4O[C@@H](C)C(=O)C=C4N)[C@@H](C)O3)[C@@H](C)O2)c2c(cc3c(c2O)C(=O)c2c(O)ccc(O)c2C3=O)[C@H]1C(=O)OC [RUDOLPHOMYCIN],AC50,Mus musculus [1],Non-toxic
same,MIC,Enterobacter cloacae,> 125 µg/mL
same,MIC,Streptococcus pneumoniae,0.06 µg/mL
same,Activity,B16 [2],26.5 days
same,Activity,B16 [3],-0.2 g
same,Activity,L1210 [4],9 days
same,Activity,Mus musculus [5],Non-toxic
same,Activity,B16 [6],22.5 days
same,Activity,L1210 [7],-1.6 g
same,MIC,Escherichia coli [8],> 125 µg/mL
same,Activity,B16 [9],-0.9 g
same,Activity,Mus musculus [10],Non-toxic
same,Activity,B16 [11],22 days
same,Activity,B16 [12],-0.3 g
same,T/C,B16 [13],130%
same,T/C,B16 [14],115%
same,T/C,B16 [15],133%
same,T/C,B16 [16],138%
same,Activity,B16 [17],27.5 days
same,AC50,Mus musculus [18],Non-toxic
same,AC50,Mus musculus [19],Non-toxic
same,MIC,Escherichia coli [20],> 125 µg/mL
same,Activity,Mus musculus [21],Toxic
same,Activity,B16 [22],-1 g
same,T/C,B16 [23],145%
same,MIC,Proteus mirabilis,> 125 µg/mL
same,Activity,B16 [24],26 days
same,T/C,L1210 [25],107%
same,MIC,Microsporum canis,> 16 µg/mL
same,MIC,Pichia kudriavzevii,> 16 µg/mL
same,T/C,B16 [26],160%
same,T/C,B16 [27],110%
same,MIC,Candida albicans [28],> 16 µg/mL
same,AC50,Mus musculus [29],Non-toxic
same,T/C,L1210 [30],120%
same,Activity,L1210 [31],8 days
same,Activity,B16 [32],23 days
same,Activity,B16 [33],-2.5 g
same,MIC,Klebsiella pneumoniae,> 125 µg/mL
same,Activity,B16 [34],29 days
same,MIC,Candida albicans [35],> 16 µg/mL
same,MIC,Streptococcus pyogenes,0.25 µg/mL
same,AC50,Mus musculus [36],Non-toxic
same,MIC,Staphylococcus aureus,1 µg/mL
same,Activity,B16 [37],32 days
same,Activity,B16 [38],-0.4 g
same,MIC,Serratia marcescens,> 125 µg/mL
same,Activity,B16 [39],-0.8 g
same,MIC,Pseudomonas aeruginosa,> 125 µg/mL
same,MIC,[40],> 16 µg/mL
same,Activity,L1210 [41],-2.2 g
same,MIC,Staphylococcus,32 µg/mL
